Assay results from patent publication US20230131966A1, “FUNGICIDAL AMIDES” (FMC Corporation, priority 2020, published 2023).

What was measured:
Format in all cases: in vivo
[1] = system: Erysiphe graminis f. sp. tritici; experiment: Test G: wheat powdery mildew control on wheat seedlings; settings: 250 ppm, 100 = 100% disease control, 0 = no control; for pest or weed control at 250 ppm: Blumeria graminis, read-out: Test G disease control rating
Phakopsora pachyrhizi = experiment: Test A: Asian soybean rust control on soybean seedlings; settings: 250 ppm, soybean seedlings, 100 = 100% disease control, 0 = no control; for pest or weed control at 250 ppm: Phakopsora pachyrhizi, read-out: Test A disease control rating
Zymoseptoria tritici = experiment: Test C: wheat leaf blotch control on wheat seedlings; settings: 250 ppm, wheat seedlings, 100 = 100% disease control, 0 = no control; for pest or weed control at 250 ppm: Zymoseptoria tritici, read-out: Test C disease control rating
Botrytis cinerea = experiment: Test E: tomato Botrytis control on tomato seedlings; settings: 250 ppm, 100 = 100% disease control, 0 = no control; for pest or weed control at 250 ppm: Botrytis cinerea, read-out: Test E disease control rating
Plasmopara viticola = experiment: Test D: grape downy mildew control on grape seedlings; settings: 250 ppm, 100 = 100% disease control, 0 = no control; for pest or weed control at 250 ppm: Plasmopara viticola, read-out: Test D disease control rating
[2] = system: Puccinia recondita f. sp. tritici; experiment: Test B: wheat leaf rust control on wheat seedlings; settings: 250 ppm, wheat seedlings, 100 = 100% disease control, 0 = no control; for pest or weed control at 250 ppm: Puccinia recondita, read-out: Test B disease control rating
Phytophthora infestans = experiment: whole plant or invertebrate; settings: tomato seedlings, 100 = 100% disease control, 0 = no control; for Test F disease control rating: 250 ppm; for pest or weed control at 250 ppm: Phytophthora infestans, in Solanum lycopersicum, read-out: Test F disease control rating, 250 ppm

COc1ccnc(C(=O)NC(C)C(=O)OC(C)C2CC(C)(C)CC(C)(C)C2)c1OC(C)=O (mixture of isomers) [Compound 171]
Test G disease control rating [1]: 0%
Test A disease control rating (Phakopsora pachyrhizi): 100%
Test C disease control rating (Zymoseptoria tritici): 80%
Test E disease control rating (Botrytis cinerea): 0%
Test D disease control rating (Plasmopara viticola): 49%
Test B disease control rating [2]: 100%
Test F disease control rating (Phytophthora infestans): 53%

COc1ccnc(C(=O)N[C@@H](C)C(=O)OC(C)C2CCCCC2)c1O (mixture of isomers) [Compound 30, N-[(3-hydroxy-4-methoxy-2-pyridinyl)carbonyl]-L-alanine 1-cyclohexylethyl ester]
pest or weed control at 250 ppm [1]: 0%
pest or weed control at 250 ppm (Phakopsora pachyrhizi): 100%
pest or weed control at 250 ppm (Zymoseptoria tritici): 97%
pest or weed control at 250 ppm (Botrytis cinerea): 0%
pest or weed control at 250 ppm (Plasmopara viticola): 1%
pest or weed control at 250 ppm [2]: 100%
pest or weed control at 250 ppm (Phytophthora infestans): 0%

COc1ccnc(C(=O)N[C@@H](C)C(=O)OC(C)c2cccc3ccccc23)c1OC(C)=O (single isomer, unassigned) [Compound 116]
Test G disease control rating [1]: 0%
Test A disease control rating (Phakopsora pachyrhizi): 100%
Test C disease control rating (Zymoseptoria tritici): 95%
Test E disease control rating (Botrytis cinerea): 0%
Test D disease control rating (Plasmopara viticola): 55%
Test B disease control rating [2]: 100%
Test F disease control rating (Phytophthora infestans): 0%

CCC(OC(=O)[C@H](C)NC(=O)c1nccc(OC)c1OCOC(=O)C(C)C)C1CCCCC1 (single isomer, unassigned) [Compound 170]
Test G disease control rating [1]: 0%
Test A disease control rating (Phakopsora pachyrhizi): 100%
Test C disease control rating (Zymoseptoria tritici): 100%
Test E disease control rating (Botrytis cinerea): 0%
Test D disease control rating (Plasmopara viticola): 32%
Test B disease control rating [2]: 100%
Test F disease control rating (Phytophthora infestans): 0%

COc1ccnc(C(=O)NC(C)C(=O)OC(C)c2cc3ccccc3o2)c1O (mixture of isomers) [Compound 125]
Test G disease control rating [1]: 0%
Test A disease control rating (Phakopsora pachyrhizi): 99%
Test C disease control rating (Zymoseptoria tritici): 90%
Test E disease control rating (Botrytis cinerea): 0%
Test D disease control rating (Plasmopara viticola): 67%
Test B disease control rating [2]: 90%
Test F disease control rating (Phytophthora infestans): 0%

COc1ccnc(C(=O)N[C@@H](C)C(=O)OC(C)c2ccccc2-c2ccccc2)c1O (single isomer, unassigned) [Compound 1]
Test G disease control rating [1]: 0%
Test A disease control rating (Phakopsora pachyrhizi): 100%
Test C disease control rating (Zymoseptoria tritici): 81%
Test E disease control rating (Botrytis cinerea): 0%
Test D disease control rating (Plasmopara viticola): 36%
Test B disease control rating [2]: 89%
Test F disease control rating (Phytophthora infestans): 0%

COc1ccnc(C(=O)N[C@@H](C)C(=O)OC(C)C2CCCc3ccccc32)c1O (single isomer, unassigned) [Compound 184]
Test G disease control rating [1]: 0%
Test A disease control rating (Phakopsora pachyrhizi): 100%
Test C disease control rating (Zymoseptoria tritici): 100%
Test E disease control rating (Botrytis cinerea): 0%
Test D disease control rating (Plasmopara viticola): 64%
Test B disease control rating [2]: 99%
Test F disease control rating (Phytophthora infestans): 0%

COc1ccnc(C(=O)NC(C)C(=O)OC(C)c2ccc(OC3CCCCC3)cc2)c1O (mixture of isomers) [Compound 53]
Test G disease control rating [1]: 0%
Test A disease control rating (Phakopsora pachyrhizi): 56%
Test C disease control rating (Zymoseptoria tritici): 22%
Test E disease control rating (Botrytis cinerea): 0%
Test D disease control rating (Plasmopara viticola): 22%
Test B disease control rating [2]: 55%
Test F disease control rating (Phytophthora infestans): 0%

CCOC(=O)c1ccn(-c2ccc(C(C)OC(=O)C(C)NC(=O)c3nccc(OC)c3O)cc2)n1 (mixture of isomers) [Compound 49]
Test G disease control rating [1]: 0%
Test A disease control rating (Phakopsora pachyrhizi): 97%
Test C disease control rating (Zymoseptoria tritici): 0%
Test E disease control rating (Botrytis cinerea): 0%
Test D disease control rating (Plasmopara viticola): 17%
Test B disease control rating [2]: 41%
Test F disease control rating (Phytophthora infestans): 0%

COc1ccnc(C(=O)N[C@@H](C)C(=O)OC(C)c2ccc(-n3ccc(C(F)(F)F)n3)cc2Cc2ccccc2)c1OC(C)=O (stereo partly drawn) [Compound 94]
Test G disease control rating [1]: 0%
Test A disease control rating (Phakopsora pachyrhizi): 38%
Test C disease control rating (Zymoseptoria tritici): 82%
Test E disease control rating (Botrytis cinerea): 0%
Test D disease control rating (Plasmopara viticola): 10%
Test B disease control rating [2]: 92%
Test F disease control rating (Phytophthora infestans): 0%

COc1cccc(C(=O)NC(C)C(=O)OC(C)C2CCCCC2)c1OC(C)=O (mixture of isomers) [Compound 92]
Test G disease control rating [1]: 0%
Test A disease control rating (Phakopsora pachyrhizi): 0%
Test C disease control rating (Zymoseptoria tritici): 0%
Test E disease control rating (Botrytis cinerea): 0%
Test D disease control rating (Plasmopara viticola): 60%
Test B disease control rating [2]: 0%
Test F disease control rating (Phytophthora infestans): 0%

CCC(OC(=O)[C@H](C)NC(=O)c1nccc(OC)c1O)C1CCCCC1 (single isomer, unassigned) [Compound 167]
Test G disease control rating [1]: 0%
Test A disease control rating (Phakopsora pachyrhizi): 100%
Test C disease control rating (Zymoseptoria tritici): 90%
Test E disease control rating (Botrytis cinerea): 0%
Test D disease control rating (Plasmopara viticola): 41%
Test B disease control rating [2]: 100%
Test F disease control rating (Phytophthora infestans): 0%

COc1ccnc(C(=O)N[C@@H](C)C(=O)OC(C)c2ccc(C3CCCCC3)cc2)c1O (mixture of isomers) [Compound 32, N-[(3-hydroxy-4-methoxy-2-pyridinyl)carbonyl]-L-alanine 1-(4-cyclohexylphenyl)ethyl ester]
pest or weed control at 250 ppm [1]: 0%
pest or weed control at 250 ppm (Phakopsora pachyrhizi): 100%
pest or weed control at 250 ppm (Zymoseptoria tritici): 86%
pest or weed control at 250 ppm (Botrytis cinerea): 0%
pest or weed control at 250 ppm (Plasmopara viticola): 18%
pest or weed control at 250 ppm [2]: 99%
pest or weed control at 250 ppm (Phytophthora infestans): 0%

COc1ccnc(C(=O)NC(C)C(=O)OC(C)C2CCC(C(F)(F)F)CC2)c1OC(C)=O (mixture of isomers) [Compound 180]
Test G disease control rating [1]: 0%
Test A disease control rating (Phakopsora pachyrhizi): 100%
Test C disease control rating (Zymoseptoria tritici): 95%
Test E disease control rating (Botrytis cinerea): 0%
Test D disease control rating (Plasmopara viticola): 51%
Test B disease control rating [2]: 99%
Test F disease control rating (Phytophthora infestans): 26%

COc1ccnc(C(=O)N[C@@H](C)C(=O)OC(C)c2ccc(F)cc2Cc2ccccc2)c1O (single isomer, unassigned) [Compound 24]
Test G disease control rating [1]: 0%
Test A disease control rating (Phakopsora pachyrhizi): 97%
Test C disease control rating (Zymoseptoria tritici): 5%
Test E disease control rating (Botrytis cinerea): 0%
Test D disease control rating (Plasmopara viticola): 61%
Test B disease control rating [2]: 68%
Test F disease control rating (Phytophthora infestans): 0%

COc1ccnc(C(=O)NC(C)C(=O)OC(C)c2ccc(-n3ccc(C(F)(F)F)n3)cc2-n2ccc(C(F)(F)F)n2)c1O (mixture of isomers) [Compound 89]
Test G disease control rating [1]: 0%
Test A disease control rating (Phakopsora pachyrhizi): 0%
Test C disease control rating (Zymoseptoria tritici): 0%
Test E disease control rating (Botrytis cinerea): 0%
Test D disease control rating (Plasmopara viticola): 16%
Test B disease control rating [2]: 0%
Test F disease control rating (Phytophthora infestans): 0%

COc1ccnc(C(=O)NC(C)C(=O)OC(C)c2cccc(C3CC3)c2)c1OC(C)=O (mixture of isomers) [Compound 157]
Test G disease control rating [1]: 0%
Test A disease control rating (Phakopsora pachyrhizi): 100%
Test C disease control rating (Zymoseptoria tritici): 86%
Test E disease control rating (Botrytis cinerea): 0%
Test D disease control rating (Plasmopara viticola): 63%
Test B disease control rating [2]: 100%
Test F disease control rating (Phytophthora infestans): 0%

COc1ccnc(C(=O)NC(C)C(=O)OC(C)c2ccc(C(F)(F)F)cc2)c1O (mixture of isomers) [Compound 36]
Test G disease control rating [1]: 0%
Test A disease control rating (Phakopsora pachyrhizi): 100%
Test C disease control rating (Zymoseptoria tritici): 81%
Test E disease control rating (Botrytis cinerea): 0%
Test D disease control rating (Plasmopara viticola): 72%
Test B disease control rating [2]: 99%
Test F disease control rating (Phytophthora infestans): 0%

CCC(OC(=O)[C@H](C)NC(=O)c1nccc(OC)c1OCOC(=O)C(C)C)c1ccc(C2CCCCC2)cc1 (single isomer, unassigned) [Compound 132]
Test G disease control rating [1]: 0%
Test A disease control rating (Phakopsora pachyrhizi): 75%
Test C disease control rating (Zymoseptoria tritici): 30%
Test E disease control rating (Botrytis cinerea): 0%
Test D disease control rating (Plasmopara viticola): 29%
Test B disease control rating [2]: 68%
Test F disease control rating (Phytophthora infestans): 0%

COc1ccnc(C(=O)N[C@@H](C)C(=O)OC(C2CCCCC2)C2CCCCC2)c1O [Compound 45]
Test G disease control rating [1]: 0%
Test A disease control rating (Phakopsora pachyrhizi): 100%
Test C disease control rating (Zymoseptoria tritici): 39%
Test E disease control rating (Botrytis cinerea): 0%
Test D disease control rating (Plasmopara viticola): 43%
Test B disease control rating [2]: 0%
Test F disease control rating (Phytophthora infestans): 9%

COc1cccc(C(=O)NC(C)C(=O)OC(C)c2ccccc2Cc2ccccc2)c1O (stereo not drawn) [Compound 5]
Test G disease control rating [1]: 0%
Test A disease control rating (Phakopsora pachyrhizi): 0%
Test C disease control rating (Zymoseptoria tritici): 0%
Test E disease control rating (Botrytis cinerea): 0%
Test D disease control rating (Plasmopara viticola): 73%
Test B disease control rating [2]: 0%
Test F disease control rating (Phytophthora infestans): 39%

COc1ccnc(C(=O)N[C@@H](C)C(=O)O[C@@H](C)C2CCCCC2)c1OC(C)=O [Compound 87, N-[[3-(acetyloxy)-4-methoxy-2-pyridinyl]carbonyl]-L-alanine (1S)-1-cyclohexylethyl ester]
pest or weed control at 250 ppm [1]: 0%
pest or weed control at 250 ppm (Phakopsora pachyrhizi): 100%
pest or weed control at 250 ppm (Zymoseptoria tritici): 95%
pest or weed control at 250 ppm (Botrytis cinerea): 0%
pest or weed control at 250 ppm (Plasmopara viticola): 21%
pest or weed control at 250 ppm (Phytophthora infestans): 47%
